How the values were obtained:
[1] = commercial intravenous formulations; cited from earlier work
[2] = test system: methicillin-resistant Staphylococcus aureus (MRSA 300); assay: Systemic mouse infection model against MRSA; assay type: in vivo; settings: CD-1 mice, combined n=3 studies
Description: (§1) The aim of this study was to compare the in vivo efficacy of the prior art historical formulation with a novel nanosuspension of the present invention using a murine systemic infection model against both a susceptible (MSSA) and a methicillin resistant (MRSA) strains of S. aureus.
(§2) Three independent studies were run against each isolate (one MSSA and one MRSA), the data for the three studies combined and analysis performed. Bacterial isolates were grown to log phase in a liquid culture. Bacteria were diluted in 8% mucin to a concentration to achieve at least 90% mortality within 48 hours after infection. Six CD-1 female mice, 18-20 grams, were allocated per compound (I) concentration and were infected with 0.5 ml of bacterial suspension via intraperitoneal injection. Five minutes post-infection, mice were treated via intravenous administration. A nanosuspension of the invention (prepared according to Example 3) was prepared fresh just prior to single IV dose delivery at 50, 100 and 200 mg/kg (dosage of compound (I)). The prior art historical formulation of compound (I) (formulated at 10 mg/mL in 20% HPBCD, and 1% glucose) and vancomycin (Sigma Aldrich) were also administered IV at one dose and were used as comparators. Infection control mice were dosed with saline. Survival was assessed for 48 hours post infection. Date of death was recorded and a Probit analysis was performed to determine the PD50 (50% protective dose).

[3] = test system: methicillin-susceptible Staphylococcus aureus (MSSA); assay: Systemic mouse infection model against MSSA; assay type: in vivo; settings: CD-1 mice, combined n=3 studies
Description: as §1, §2

[4] = test system: MSSA and MRSA infections; settings: murine model; cited from earlier work
[5] = Particle size of suspensions made with concentrated aqueous PVP (solvent evaporation attempts); assay type: physicochemical; settings: low molecular weight PVP (3,500 Da), concentrated aqueous polymer solution
Description: Alternative solvent evaporation systems such as oil-in-oil and water-in-oil systems were investigated, however large particle sizes were still observed. In an attempt to reduce solvent dissolution into the continuous phase of the oil-in-water system, the aqueous phase was saturated with different salts to reduce solvent solubility. However, little benefit was achieved through the use of the saturated salt systems, as large crystals were still observed. It was thought that the use of a concentrated aqueous polymer solution would disrupt or prevent crystal formation. Multiple molecular weights and concentrations of PVP were studied. […] In the expectation of further reducing the particle size (to <1 μm i.e. to nanoparticulate form) further surfactants were added. However, by contrast, the addition of further surfactants to the solution yielded large size growth of particles.

[6] = cited from earlier work
[7] = test system: Staphylococcus aureus MSSA, MRSA, VISA and VRSA strains; settings: pathogenic MSSA; cited from earlier work
[8] = single IV dose 50 mg/kg, 48 h post infection
[9] = single IV dose, Probit analysis

CC(O)COC[C@H]1O[C@@H]2O[C@H]3[C@H](O)[C@@H](O)[C@@H](O[C@H]4[C@H](O)[C@@H](O)[C@@H](O[C@H]5[C@H](O)[C@@H](O)[C@@H](O[C@H]6[C@H](O)[C@@H](O)[C@@H](O[C@H]7[C@H](O)[C@@H](O)[C@@H](O[C@H]8[C@H](O)[C@@H](O)[C@@H](O[C@H]1[C@H](O)[C@H]2O)O[C@@H]8COCC(C)O)O[C@@H]7COCC(C)O)O[C@@H]6COCC(C)O)O[C@@H]5COCC(C)O)O[C@@H]4COCC(C)O)O[C@@H]3COCC(C)O (stereo partly drawn) [HPBCD, hydroxypropyl-beta-cyclodextrin]
Maximum reported safe daily dose [1]: 16 g/day

CN[C@H](CC(C)C)C(=O)N[C@H]1C(=O)N[C@@H](CC(N)=O)C(=O)N[C@H]2C(=O)N[C@H]3C(=O)N[C@H](C(=O)N[C@H](C(=O)O)c4cc(O)cc(O)c4-c4cc3ccc4O)[C@H](O)c3ccc(c(Cl)c3)Oc3cc2cc(c3O[C@@H]2O[C@H](CO)[C@@H](O)[C@H](O)[C@H]2O[C@H]2C[C@](C)(N)[C@H](O)[C@H](C)O2)Oc2ccc(cc2Cl)[C@H]1O [Vancomycin, vancomycin]
% survival [2, 8]: 100% | Survival [2, 8]: 18/18 | PD50 (95% C.I.) [2, 9]: <50 mg/kg | % survival [3, 8]: 100% | Survival [3, 8]: 18/18 | PD50 (50% protective dose) [3, 9]: <50 mg/kg

CCc1cc(O)c(Oc2ccc(C(N)=O)cc2F)cc1F [compound (I), 4-(4-ethyl-5-fluoro-2-hydroxyphenoxy)-3-fluorobenzamide]
In vivo activity [4]: active in vivo | Particle size of suspension [5]: 4.4 μm | Water-solubility [6]: relatively poor | Concentration at which compound (I) may be formulated ([6]; prior art historical formulation (water, glucose monohydrate, HPBCD)): up to 11.3 mg/mL | In vitro activity [7]: highly active

— patent publication US20160206577A1, “NOVEL DRUG FORMULATION” (FAB PHARMA SAS, priority 2013, published 2016)
